Assay results published in US10604526B2, “Chemokine receptor modulators and uses thereof” (RAPT THERAPEUTICS, INC., priority 2016, dated 2020).

What follows are compounds tested against T1, hCCR4 (Homo sapiens, UniProt P51679) (assay: Calcium flux assay). Settings: Chem5-hCCR4 cells, CCL22 at EC80 of 1.5 nM, FLIPR Calcium 6 dye; read-out: Potency (IC50).
T1 sequence (P51679 1-360): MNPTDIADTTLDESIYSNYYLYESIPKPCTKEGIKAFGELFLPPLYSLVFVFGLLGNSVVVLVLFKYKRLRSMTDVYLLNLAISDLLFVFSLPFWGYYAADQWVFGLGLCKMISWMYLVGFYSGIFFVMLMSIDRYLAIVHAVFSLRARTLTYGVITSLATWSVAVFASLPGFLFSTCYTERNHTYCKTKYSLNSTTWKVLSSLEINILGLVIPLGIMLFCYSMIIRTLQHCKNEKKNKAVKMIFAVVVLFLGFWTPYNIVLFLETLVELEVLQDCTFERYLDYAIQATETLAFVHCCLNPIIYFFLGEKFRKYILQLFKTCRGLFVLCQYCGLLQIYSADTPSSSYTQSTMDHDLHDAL
Type: cell-based
Method: Calcium Flux Assay. Compounds were evaluated in a calcium flux assay substantially performed as follows. Chem5-hCCR4 cells (EMD Millipore, Hayward, Calif.; HTS009C) were cultured under standard conditions and frozen in aliquots of 10×10^6 cells/mL. The day prior to compound testing, a vial was rapidly thawed and pipetted into 20 mL media (DMEM+10% FBS+1% Pen-Strep+1% L-glutamine). Cells were harvested by centrifugation and re-suspended in fresh culture medium. 25 μL of cell suspension was seeded into 384-well plates (Corning, Tewksbury, Mass.; CellBind with black wall/clear bottom). The plates were centrifuged at 300 g for 10 seconds and incubated overnight at 37° C. and 5% CO2. The day of compound testing, media was removed from the plates and 25 μL serum free media was added to each well. Plates were returned to the incubator for 2 h. 25 μL assay buffer (Hank's balanced salt solution+20 mM HEPES pH 7.4) containing FLIPR Calcium 6 dye (Molecular Devices, Sunnyvale, Calif.; # R8191) and probenecid (2.5 mM) was added to each well and incubated at 37° C. and 5% CO2 for 2 h. Compounds in DMSO were added to the plates using an HP D300e digital dispenser, and all wells were normalized to contain 0.25 μL (0.5%) DMSO. Plates were incubated for 1 hour at 37° C. and 5% CO2. CCL22 (Peprotech; Rockyhill, N.J.) was diluted in assay buffer containing 0.1% BSA to 7.5 nM (corresponding to 5×EC80 of 1.5 nM).
Assay plates and working solution of CCL22 were transferred to the FlexStation plate reader (Molecular Devices) at 37° C. for 5 min of equilibration. Fluorescence recordings at 485 excitation/525 emission were performed at 2.5 second intervals. At t=16 seconds, 12.5 μL of CCL22 solution was added to each well and reads continued for 30 seconds at 2.5 second intervals. The minimum fluorescence (Fmin) was calculated by averaging the reads prior to ligand addition and the change in fluorescence (ΔF) was calculated by subtracting the Fmin from the average of the reads following ligand addition. The response ΔF/Fmin was plotted as a function of the compound concentration and the IC50 values were determined by non-linear regression analysis using a 4-parameter fit in either PRISM software (GraphPad; La Jolla, Calif.) or Dotmatics Browser.

Row | Compound | IC50 [nM]
1 | 1-((R)-1-(2,4-Dichlorophenyl)ethyl)-6-(3-((S)-1-(2-hydroxyethyl)piperidin-3-yl)azetidin-1-yl)-1H-pyrazolo[3,4-b]pyrazine-3-carbonitrile and 1-((S)-1-(2,4-dichlorophenyl)ethyl)-6-(3-((S)-1-(2-hydroxyethyl)piperidin-3-yl)azetidin-1-yl)-1H-pyrazolo[3,4-b]pyrazine-3-carbonitrile [Example 34] | < 100
2 | 1-((R)-1-(2,4-Dichlorophenyl)ethyl)-6-(3-((S)-1-(2-hydroxyethyl)piperidin-3-yl)azetidin-1-yl)-1H-pyrazolo[3,4-b]pyrazine-3-carboxamide and 1-((S)-1-(2,4-dichlorophenyl)ethyl)-6-(3-((S)-1-(2-hydroxyethyl)piperidin-3-yl)azetidin-1-yl)-1H-pyrazolo[3,4-b]pyrazine-3-carboxamide [Example 41] | < 100
3 | 1-((R)-1-(2,4-dichlorophenyl)ethyl)-6-(3-((R)-1-((R)-4-hydroxybutan-2-yl)piperidin-3-yl)azetidin-1-yl)-1H-pyrazolo[3,4-b]pyrazine-3-carbonitrile and 1-((R)-1-(2,4-dichlorophenyl)ethyl)-6-(3-((R)-1-((S)-4-hydroxybutan-2-yl)piperidin-3-yl)azetidin-1-yl)-1H-pyrazolo[3,4-b]pyrazine-3-carbonitrile [Example 82] | < 100
4 | 1-((R)-1-(2,4-dichlorophenyl)ethyl)-6-(3-((S)-1-((R)-4-hydroxybutan-2-yl)piperidin-3-yl)azetidin-1-yl)-1H-pyrazolo[3,4-b]pyrazine-3-carbonitrile and 1-((R)-1-(2,4-dichlorophenyl)ethyl)-6-(3-((S)-1-((S)-4-hydroxybutan-2-yl)piperidin-3-yl)azetidin-1-yl)-1H-pyrazolo[3,4-b]pyrazine-3-carbonitrile [Example 83] | 100 to 500
5 | 4-((S)-3-(1-(1-((R)-1-(2,4-Dichlorophenyl)ethyl)-3-methyl-1H-pyrazolo[3,4-b]pyrazin-6-yl)azetidin-3-yl)piperidin-1-yl)butanoic acid and 4-((R)-3-(1-(1-((R)-1-(2,4-dichlorophenyl)ethyl)-3-methyl-1H-pyrazolo[3,4-b]pyrazin-6-yl)azetidin-3-yl)piperidin-1-yl)butanoic acid [Example 17] | < 100
6 | 4-((S)-3-(1-(1-((R)-1-(2,4-Dichlorophenyl)ethyl)-3-methyl-1H-pyrazolo[3,4-d]pyrimidin-6-yl)azetidin-3-yl)piperidin-1-yl)butanoic acid and 4-((R)-3-(1-(1-((R)-1-(2,4-dichlorophenyl)ethyl)-3-methyl-1H-pyrazolo[3,4-d]pyrimidin-6-yl)azetidin-3-yl)piperidin-1-yl)butanoic acid [Example 20] | 100 to 500
7 | CCOC(=O)CN1CCCC(C2CN(c3cnc4c(C)nn([C@H](C)c5ccc(Cl)cc5Cl)c4n3)C2)C1 (mixture of isomers) [Example 1, Ethyl 2-((R)-3-(1-(1-((R)-1-(2,4-dichlorophenyl)ethyl)-3-methyl-1H-pyrazolo[3,4-b]pyrazin-6-yl)azetidin-3-yl)piperidin-1-yl)acetate 2,2,2-trifluoroacetate and 2,2,2-trifluoroacetate ethyl 2-((S)-3-(1-(1-((R)-1-(2,4-dichlorophenyl)ethyl)-3-methyl-1H-pyrazolo[3,4-b]pyrazin-6-yl)azetidin-3-yl)piperidin-1-yl)acetate] | > 500
8 | Cc1nn([C@H](C)c2ccc(Cl)cc2Cl)c2nc(N3CC(C4CCCN(CCS(N)(=O)=O)C4)C3)cnc12 (mixture of isomers) [Example 4, 2-((R)-3-(1-(1-((R)-1-(2,4-dichlorophenyl)ethyl)-3-methyl-1H-pyrazolo[3,4-b]pyrazin-6-yl)azetidin-3-yl)piperidin-1-yl)ethane-1-sulfonamide and 2-((S)-3-(1-(1-((R)-1-(2,4-dichlorophenyl)ethyl)-3-methyl-1H-pyrazolo[3,4-b]pyrazin-6-yl)azetidin-3-yl)piperidin-1-yl)ethane-1-sulfonamide] | 100 to 500
9 | Cc1nn([C@H](C)c2ccc(Cl)cc2Cl)c2nc(N3CC(C4CCCN(CCC(=O)O)C4)C3)cnc12 (mixture of isomers) [Example 7, 3-((S)-3-(1-(1-((R)-1-(2,4-Dichlorophenyl)ethyl)-3-methyl-1H-pyrazolo[3,4-b]pyrazin-6-yl)azetidin-3-yl)piperidin-1-yl)propanoic acid and 3-((R)-3-(1-(1-((R)-1-(2,4-dichlorophenyl)ethyl)-3-methyl-1H-pyrazolo[3,4-b]pyrazin-6-yl)azetidin-3-yl)piperidin-1-yl)propanoic acid] | 100 to 500
10 | Cc1nn([C@H](C)c2ccc(Cl)cc2Cl)c2nc(N3CC(C4CCCN(C5CC(C(=O)O)C5)C4)C3)cnc12 (mixture of isomers) [Example 16] | > 500
11 | C[C@H](c1ccc(Cl)cc1Cl)n1nc(C#N)c2ncc(N3CC(C4CCCN(CCS(C)(=O)=O)C4)C3)nc21 (mixture of isomers) [Example 23, 1-((R)-1-(2,4-Dichlorophenyl)ethyl)-6-(3-((S)-1-(2-(methylsulfonyl)ethyl)piperidin-3-yl)azetidin-1-yl)-1H-pyrazolo[3,4-b]pyrazine-3-carbonitrile and 1-((R)-1-(2,4-dichlorophenyl)ethyl)-6-(3-((R)-1-(2-(methylsulfonyl)ethyl)piperidin-3-yl)azetidin-1-yl)-1H-pyrazolo[3,4-b]pyrazine-3-carbonitrile] | < 100
12 | C[C@H](c1ccc(Cl)cc1Cl)n1nc(C#N)c2ncc(N3CC(C4CCCN(CCC(N)=O)C4)C3)nc21 (mixture of isomers) [Example 24, 3-((S)-3-(1-(3-Cyano-1-((R)-1-(2,4-dichlorophenyl)ethyl)-1H-pyrazolo[3,4-b]pyrazin-6-yl)azetidin-3-yl)piperidin-1-yl)propanamide and 3-((R)-3-(1-(3-cyano-1-((R)-1-(2,4-dichlorophenyl)ethyl)-1H-pyrazolo[3,4-b]pyrazin-6-yl)azetidin-3-yl)piperidin-1-yl)propanamide] | < 100
13 | CC(O)CN1CCCC(C2CN(c3cnc4c(C#N)nn([C@H](C)c5ccc(Cl)cc5Cl)c4n3)C2)C1 (mixture of isomers) [Example 27] | < 100
14 | Cc1nn([C@H](C)c2ccc(Cl)cc2Cl)c2nc(N3CC(C4CCCN(CCO)C4)C3)ncc12 (mixture of isomers) [Example 37, 2-((S)-3-(1-(1-((R)-1-(2,4-Dichlorophenyl)ethyl)-3-methyl-1H-pyrazolo[3,4-d]pyrimidin-6-yl)azetidin-3-yl)piperidin-1-yl)ethan-1-ol and 2-((R)-3-(1-(1-((R)-1-(2,4-dichlorophenyl)ethyl)-3-methyl-1H-pyrazolo[3,4-d]pyrimidin-6-yl)azetidin-3-yl)piperidin-1-yl)ethan-1-ol] | < 100
15 | Cc1nn([C@H](C)c2ccc(Cl)cc2Cl)c2nc(N3CC(C4CCCN(CCO)C4)C3)cnc12 (mixture of isomers) [Example 40, 2-((S)-3-(1-(1-((R)-1-(2,4-Dichlorophenyl)ethyl)-3-methyl-1H-pyrazolo[3,4-b]pyrazin-6-yl)azetidin-3-yl)piperidin-1-yl)ethan-1-ol and 2-((R)-3-(1-(1-((R)-1-(2,4-dichlorophenyl)ethyl)-3-methyl-1H-pyrazolo[3,4-b]pyrazin-6-yl)azetidin-3-yl)piperidin-1-yl)ethan-1-ol] | < 100
